Test results taken from ChEMBL document CHEMBL1137296, “Subtle side-chain modifications of the hop phytoestrogen 8-prenylnaringenin result in distinct agonist/antagonist activity profiles for estrogen receptors alpha and beta” (J Med Chem, 2006).

Assays:
Estrogen receptor beta = Estrogen receptor beta (Homo sapiens, UniProt Q92731)
Description: Displacement of [3H]E2 from human recombinant ERbeta LBD by SPA

Estrogen receptor = molecular target: T1, Estrogen receptor (Homo sapiens, UniProt P03372)
T1 sequence (P03372 whole entry): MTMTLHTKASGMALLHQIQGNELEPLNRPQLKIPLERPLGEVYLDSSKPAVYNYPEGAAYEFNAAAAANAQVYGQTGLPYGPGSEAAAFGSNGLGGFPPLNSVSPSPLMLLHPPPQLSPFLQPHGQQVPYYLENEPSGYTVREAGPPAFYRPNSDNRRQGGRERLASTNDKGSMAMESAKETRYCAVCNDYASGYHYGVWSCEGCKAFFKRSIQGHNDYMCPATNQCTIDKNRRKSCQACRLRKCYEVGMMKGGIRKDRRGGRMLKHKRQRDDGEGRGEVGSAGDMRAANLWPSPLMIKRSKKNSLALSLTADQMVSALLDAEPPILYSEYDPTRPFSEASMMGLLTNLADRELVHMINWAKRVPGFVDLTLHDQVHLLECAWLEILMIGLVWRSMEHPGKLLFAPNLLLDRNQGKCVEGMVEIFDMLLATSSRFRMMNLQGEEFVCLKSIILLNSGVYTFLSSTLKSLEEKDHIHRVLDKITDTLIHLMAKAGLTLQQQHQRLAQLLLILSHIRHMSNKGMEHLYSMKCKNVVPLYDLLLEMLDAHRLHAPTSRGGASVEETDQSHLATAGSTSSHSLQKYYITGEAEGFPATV
Description: Displacement of [3H]E2 from human recombinant ERalpha LBD by SPA

[1] = molecular target: T2, Estrogen receptor (Homo sapiens) (UniProt P03372); details: Huh-7, filed as antagonist
T2 sequence (whole entry): T1 sequence (P03372 whole entry)
Description: Antagonist activity on ERalpha-mediated transcription of ERE-luciferase reporter gene in human Huh7 cells relative to estradiol

Sequence of Estrogen receptor beta (Q92731 whole entry): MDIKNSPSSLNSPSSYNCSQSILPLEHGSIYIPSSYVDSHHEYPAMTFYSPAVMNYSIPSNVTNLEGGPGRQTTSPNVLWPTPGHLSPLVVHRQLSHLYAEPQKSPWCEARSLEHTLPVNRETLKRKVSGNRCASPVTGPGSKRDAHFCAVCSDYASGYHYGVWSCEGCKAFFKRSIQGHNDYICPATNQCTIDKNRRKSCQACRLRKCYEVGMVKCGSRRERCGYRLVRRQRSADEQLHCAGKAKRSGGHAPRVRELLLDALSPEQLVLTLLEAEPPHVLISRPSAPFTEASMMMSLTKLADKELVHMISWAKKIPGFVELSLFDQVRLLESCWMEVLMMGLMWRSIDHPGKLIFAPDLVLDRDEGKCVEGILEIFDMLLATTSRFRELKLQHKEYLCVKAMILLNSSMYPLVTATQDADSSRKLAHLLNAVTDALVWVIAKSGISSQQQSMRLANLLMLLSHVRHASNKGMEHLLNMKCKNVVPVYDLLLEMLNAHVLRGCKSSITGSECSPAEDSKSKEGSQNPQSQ

Row | SMILES | IC50 (Estrogen receptor beta) [nM] | IC50 (Estrogen receptor) [nM] | Antagonist activity [1]
1 | CCCCCc1c(O)cc(O)c2c1O[C@H](c1ccc(O)cc1)CC2=O | 97 | 383 | –
2 | O=C1C[C@@H](c2ccc(O)cc2)Oc2cc(O)cc(O)c21 [NARINGENIN] | 13500 | 75300 | –
3 | O=C1C[C@@H](c2ccc(O)cc2)Oc2c(Cc3ccccc3)c(O)cc(O)c21 | 244 | 503 | –
4 | CC(C)Cc1c(O)cc(O)c2c1O[C@H](c1ccc(O)cc1)CC2=O | 37 | 80 | –
5 | CCCCCCCCCc1c(O)cc(O)c2c1O[C@H](c1ccc(O)cc1)CC2=O | 113 | 436 | Partial antagonist
6 | CC(C)CCc1c(O)cc(O)c2c1O[C@H](c1ccc(O)cc1)CC2=O | 59 | 140 | –

More lines, in order of falling IC50 (Estrogen receptor beta), values ahead:

Row | IC50 (Estrogen receptor beta) [nM] | IC50 (Estrogen receptor) [nM] | Antagonist activity [1] | SMILES
7 | 863 | 5250 | – | Cc1c(O)cc(O)c2c1O[C@H](c1ccc(O)cc1)CC2=O
8 | 421 | 1020 | Partial antagonist | CCCCCCCCCCCc1c(O)cc(O)c2c1O[C@H](c1ccc(O)cc1)CC2=O
9 | 141 | 216 | – | CC(C)(C)Cc1c(O)cc(O)c2c1O[C@H](c1ccc(O)cc1)CC2=O
10 | 69 | 392 | Partial antagonist | CCCCCCCc1c(O)cc(O)c2c1O[C@H](c1ccc(O)cc1)CC2=O
11 | 29 | 155 | – | CCCc1c(O)cc(O)c2c1O[C@H](c1ccc(O)cc1)CC2=O
